The source of these data is patent US8022268B2, “Transgenic animal model for alzheimer's disease” (The University of Zurich, priority 2007, dated 2011).

For one assay, the system named is arcAβ mice. The assay is described as follows: fMRI vascular reactivity to acetazolamide (cerebral blood volume) after passive immunization. It is filed as in vivo. The note with it: transgenic (tg) arcAβ mice after 2 months antibody treatment. How it is done:
(§1) 24 month old arcAβ mice were injected weekly i.p. with recombinant human NI-101.10 or Humira control antibody (3 mg/kg body weight) over a time period of 2 months (8 injections). The allocation of mice to the individual groups was: n=[…] and 4 wt for the NI-101.10 treatment groups; n=[…] and 6 wt for the control antibody treatment groups.
ArcAβ mice and their wildtype littermates were measured before (n=3 tg and 3 wt) or after the antibody treatment (n=5 tg NI-101.10, 4 tg Humira, […], 6 wt Humira). Mice were anesthetized with Isofluran, intubated and artificially ventilated during the MR experiment. The mice were placed on a water-heated cradle and all agents were injected via cannula into the tail vein. Experiments were performed on a 4.7 Tesla Pharmascan 47/16 (Bruker BioSpin GmbH, Germany). Scan parameters of the RARE sequence (Hennig et al., Magn. Reson. Med. 3 (1986), 823-833) were set as followed: spatial resolution: 156×156×700 μm^3, temporal resolution: 40 s, repetition time: 2500 ms, echo time (eff. TE): 80.2 ms, field of view (FOV): 2×1.3 cm^2, RARE factor: 32, matrix dimension: 128×128, slice thickness: 0.7 mm, inter-slice distance: 1.2 mm, number of averages: 4, number of slices: 5. fMRI measurement comprised 3 phases: 8 baseline images (S pre) were acquired as reference for the determination of the relative cerebral blood volume (CBVrel) changes. […]

Another assay has as its system brain β-amyloid plaques. Kind of assay: Blood brain barrier penetration and binding to Aβ deposits after peripheral administration (double staining with 6E10 and anti-human IgG). It is filed as in vivo. The following applies: 24 month arcAβ mice, 3 mg/kg i.p. weekly for 2 months; 6E10 and anti-human IgG double staining. How it is done:
ArcAβ mice were generated as described in the previous Examples on a hybrid background of C57B1/6 and DBA2. The test group was backcrossed once to C57B1/6. Mice were kept under standard housing conditions on a reversed 12 h:12 h light/dark cycle and had free access to food and water. The treatment groups were balanced for age and gender.
Recombinant human anti-Aβ antibody NI-101.10 was produced in stably transfected 293 HEK cells and purified using standard Protein A column purification. Control antibody Humira (Adalimumab, Abbott, Switzerland) was dissolved in medium conditioned by 293 HEK cells and purified as described.
as §1
Mice were anesthetized (10 ul/g bw ketamin/xylaxine) and perfused transcardially with PBS. One brain hemisphere was dissected into cortex, hippocampus and cerebellum and immediately frozen on dry-ice for further biochemical analysis. The other hemisphere was fixed in 4% paraformaldehyde and embedded in paraffin. 5 μm sagittal sections were cut with a Leica RM 2135 microtome (Bannockburn, Ill.). […]

Consider Adalimumab [Humira], for which the “mean ACBV % (integrated, after acetazolamide 30 mg/kg)” value in the assay with arcAβ mice was determined as 500%. Also, the “binding of human antibody to Aβ deposits in brain sections” value in the assay on brain β-amyloid plaques was “No such binding”.
